Common to all, as to assay type: biochemical
Holding throughout (conditions): HeLa S3 lysate, sfGFP/mCherry ratio, 2 hrs at 30° C.

Test [1] deals with KRAS G12D. Kind of test: In vitro transcription-translation (IVTT) assay, KRAS G12D reporter. The source says: (§1) All reporter constructs have been cloned into the pT7CFE1-CHis plasmid (ThermoFisher #88860) using Gibson assembly procedures (NEB #E2611L). The parental pT7CFE1-CHis plasmid contains an EMCV IRES at the 5′UTR for translation initiation, a multiple-cloning site (MCS) for gene insertion, an optional C-terminal His-epitope tag, and polyA sequence in the 3′UTR to regulate mRNA stability. All reporters are designed to be inserted at the MCS to include a red fluorescent protein (mCherry), P2A self-cleaving peptide which releases the preceding mCherry protein product, and a fusion open reading frame containing a 3×FLAG epitope, a peptide sequence of interest (TEST), and green fluorescent protein (sfGFP).
(§2) Construct Plasmid Preparation: All plasmids are isolated from MACH1 cells (ThermoFisher) grown overnight in ampicillin-containing luria broth, and purified using ZymoPure Express Plasmid Midiprep Kit (Zymo Research). Constructs are sequenced verified and diluted to a working concentration of 110 ng/μL.
(§3) HeLa S3 Lysate Preparation: HeLa S3 cell pellets are acquired from Ipracell/Ipratech (Belgium) and shipped as 4 mL frozen cell pellets on dry ice for storage at −80° C. until use. The procedure for lysate preparation is as follows. Prepare 1× Lysis Buffer, cold and stored on ice:
(§4) Each preparation takes 8 cell pellets (4 ml packed volume each, approximately 1.0×10^9 cells per pellet). Thaw cell pellets from −80° C. on ice for 90 mins. Lay pellets horizontally on top of the ice and rotate every 30 mins to ensure even thawing. Once thawed, add 4 mL of cold lysis buffer to each pellet, and using a serological pipet, gently pipet up and down to break up clumps. Incubate resuspended cells in ice for an additional 30 mins (plunged into ice). During 30 min incubation, rinse and RNase-zap (Ambion) glass dounces (use loose pestle “A”), gently dry and place on ice until needed. Prepare RNase-free Eppendorf tubes for spinning and for batch storage. Add batch labels to 1.5-1.7 mL RNase-free microcentrifuge tubes (labeling scheme below). Each batch will have an extra 1.5-1.7 mL RNase-free microcentrifuge tube for 40 μL of lysate, label the top of this tube (labeling scheme below). After 30 min incubation, transfer all 8 mL of cell pellet to dounce. Cell lysis is complete after douncing 100 times. Aliquot cell lysis into 1.5-1.7 mL temporary-microcentrifuge tubes. Place tubes in centrifuge with “fins” out, and spin at 1,200×g for 5 mins. After the first spin use a 1 mL pipet to resuspend each tube and repeat spin. This acts as an additional lysis step, is more vigorous and increases lysate yield. During second spin get liquid N2 and a fresh conical tube on ice. After spin is complete, transfer supernatant (lysate) from microcentrifuge tubes into the 50 mL conical tube and keep on ice. Repeat steps 10-14 for all other cell pellets until completed. Once all cell lysate has been transferred to the 50 mL conical tube pipet to mix so the solution is homogenous. Transfer 1 mL of lysate into batch-labeled microcentrifuge tubes and flash freeze in liquid nitrogen. Be sure to pipet up and down to mix throughout transfer step. Place all tubes in the […] for long-term storage.
(§5) In vitro transcription-translation assay setup: Each assay includes a master mix containing lysate and shared components, a 96-well plate containing compound titrations for testing, a 96-well DNA plate with reporter constructs to be tested, 96-well skirted PCR plates, and 96-well flat-bottom, black, fluorescent assay plates. […]

Test [2] deals with ALK. Kind of test: In vitro transcription-translation (IVTT) assay, ALK reporter.
Text: as §1, §2, §3, §4, §5

Test [3] has as its system MYC. The test is described as follows: In vitro transcription-translation (IVTT) assay, MYC reporter. The method in brief:
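Reporter: mCherry, P2A, then 3×FLAG-target peptide-sfGFP fusion, IRES-initiated; HeLa S3 lysate IVTT; cpd dilutions 30 μM−0.1 μM half-log in 100% DMSO (dilution-plate conc); DNA added last; 2 h, 30° C; PBS quench.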

Counter-ions that a name gives are not always drawn.

Broadly, the IC50 is the point on the concentration scale where inhibition reaches its midpoint.

In the case of `COc1ccc(C[C@H]2NC[C@H](O)[C@H]2OC(=O)NC2CC(F)(F)C2)cc1` [V187191, (2R,3S,4S)-4-hydroxy-2-[(4-methoxyphenyl)methyl]pyrrolidin-3-yl N-(3,3-difluorocyclobutyl)carbamate; trifluoroacetic acid], the IC50 in test [1] was greater than 30 µM; in test [2] it was less than 10 µM; in test [3], 20 to 30 µM.

Consider `COc1ccc(C[C@H]2NC[C@H](O)[C@H]2OC(=O)NCC[C@H]2CN(Cc3ccccc3)CCN2Cc2ccccc2)cc1` [V187315], for which the IC50 in test [1], in test [2] and in test [3] was greater than 30 µM in each case.

Consider `COc1ccc(C[C@H]2NC[C@H](O)[C@H]2OC(=O)NCC[C@@H]2NC(=O)C3(CCNCC3)NC2=O)cc1` [V187327, (2R,3S,4S)-4-hydroxy-2-[(4-methoxyphenyl)methyl]pyrrolidin-3-yl N-{2-[(3S)-2,5-dioxo-1,4,9-triazaspiro[5.5]undecan-3-yl]ethyl}carbamate; trifluoroacetic acid], for which the figures for the IC50 in test [1], in test [2] and in test [3] were greater than 30 µM, less than 10 µM and greater than 30 µM, respectively.

Regarding `COc1ccc(C[C@H]2NC[C@H](O)[C@H]2OC(=O)NCC[C@H]2CN(CC3CC3)CCN2Cc2ccccc2)cc1` [V187344], the IC50 in test [1], in test [2] and in test [3] was greater than 30 µM throughout.

`COc1ccc(C[C@H]2NC[C@H](O)[C@H]2OC(=O)NCC[C@H]2CN(CC3CCCO3)CCN2Cc2ccccc2)cc1` (stereo partly drawn) [V187345, (2R,3S,4S)-4-hydroxy-2-[(4-methoxyphenyl)methyl]pyrrolidin-3-yl N-{2-[(2S)-1-benzyl-4-(oxolan-2-ylmethyl)piperazin-2-yl]ethyl}carbamate]: the IC50 in test [1], in test [2] and in test [3] was greater than 30 µM in each case.

For `COc1ccc(C[C@H]2NC[C@H](O)[C@H]2OC(=O)NC[C@@H]2NC(=O)CNC2=O)cc1` [V187381, (2R,3S,4S)-4-hydroxy-2-[(4-methoxyphenyl)methyl]pyrrolidin-3-yl N-{[(2S)-3,6-dioxopiperazin-2-yl]methyl}carbamate], the IC50 in test [1], in test [2] and in test [3] was greater than 30 µM in each case.

With `CCCCN(CCCC)CCNC(=O)O[C@@H]1[C@@H](O)CN[C@@H]1Cc1ccc(OC)cc1` [V187382, (2R,3S,4S)-4-hydroxy-2-[(4-methoxyphenyl)methyl]pyrrolidin-3-yl N-[2-(dibutylamino)ethyl]carbamate], the concentration for half-maximal inhibition (IC50) in test [1], in test [2] and in test [3] was greater than 30 µM each time.

Turning to `CCN(CC)CCCCNC(=O)O[C@@H]1[C@@H](O)CN[C@@H]1Cc1ccc(OC)cc1` [V187385, (2R,3S,4S)-4-hydroxy-2-[(4-methoxyphenyl)methyl]pyrrolidin-3-yl N-[4-(diethylamino)butyl]carbamate; trifluoroacetic acid], the values for the IC50 in test [1], in test [2] and in test [3] were 20 to 30 µM, less than 10 µM and 10 to 20 µM, respectively.

As to `CCCCN(CCCC)CCCNC(=O)O[C@@H]1[C@@H](O)CN[C@@H]1Cc1ccc(OC)cc1` [V187386, (2R,3S,4S)-4-hydroxy-2-[(4-methoxyphenyl)methyl]pyrrolidin-3-yl N-[3-(dibutylamino)propyl]carbamate], the half-inhibitory concentration (IC50) in test [1], in test [2] and in test [3] was greater than 30 µM in each case.

In the case of `CCN(CC)CCCNC(=O)O[C@@H]1[C@@H](O)CN[C@@H]1Cc1ccc(OC)cc1` [V187387, (2R,3S,4S)-4-hydroxy-2-[(4-methoxyphenyl)methyl]pyrrolidin-3-yl N-[3-(diethylamino)propyl]carbamate trifluoroacetic acid salt], the IC50 in test [1] was greater than 30 µM; in test [2], less than 10 µM; in test [3] it was 20 to 30 µM.

`COc1ccc(C[C@H]2NC[C@H](O)[C@H]2OC(=O)NCCN(C(C)C)C(C)C)cc1` [V187436, (2R,3S,4S)-4-hydroxy-2-[(4-methoxyphenyl)methyl]pyrrolidin-3-yl N-[2-(diisopropylamino)ethyl]carbamate]: the IC50 in test [1], in test [2] and in test [3] was greater than 30 µM throughout.

Consider `COc1ccc(C[C@H]2NC[C@H](O)[C@H]2OC(=O)NCCCOCC(C)C)cc1` [V187437, (2R,3S,4S)-4-hydroxy-2-[(4-methoxyphenyl)methyl]pyrrolidin-3-yl N-[3-(2-methylpropoxy)propyl]carbamate], for which the IC50 in test [1] was 20 to 30 µM; in test [2], less than 10 µM; in test [3] it was 10 to 20 µM.

As to `COc1ccc(C[C@H]2NC[C@H](O)[C@H]2OC(=O)NCCc2cnn(Cc3ccccc3)c2)cc1` [V187439, (2R,3S,4S)-4-hydroxy-2-(4-methoxybenzyl)pyrrolidin-3-yl (2-(1-benzyl-1H-pyrazol-4-yl)ethyl) carbamate], the IC50 in test [1] was 20 to 30 µM; in test [2], less than 10 µM; in test [3], less than 10 µM.

Consider `COc1ccc(C[C@H]2NC[C@H](O)[C@H]2OC(=O)NCCN2CCN(Cc3ccccc3)CC2)cc1` [V187465, (2R,3S,4S)-4-hydroxy-2-[(4-methoxyphenyl)methyl]pyrrolidin-3-yl N-[2-(4-benzylpiperazin-1-yl)ethyl]carbamate], for which the IC50 in test [1] was 10 to 20 µM; in test [2], less than 10 µM; in test [3], less than 10 µM.

For `COCCN(CCNC(=O)O[C@@H]1[C@H](O)CN[C@H]1Cc1ccc(OC)cc1)CCc1ccccc1` [V187508, (2S,3S,4R)-4-hydroxy-2-[(4-methoxyphenyl)methyl]pyrrolidin-3-yl N-{2-[(2-methoxyethyl)(2-phenylethyl)amino]ethyl}carbamate], the IC50 in test [1] is greater than 30 µM; in test [2], 10 to 20 µM; in test [3] it was greater than 30 µM.

For the molecule `COc1ccc(C[C@H]2NC[C@H](O)[C@H]2OC(=O)NCC2CCSCC2)cc1` [V187516, (2R,3S,4S)-4-hydroxy-2-[(4-methoxyphenyl)methyl]pyrrolidin-3-yl N-(thian-4-ylmethyl) carbamate], the IC50 in test [1] was 10 to 20 µM; in test [2] it was less than 10 µM; in test [3] it was less than 10 µM.

For `COc1ccc(C[C@H]2NC[C@H](O)[C@H]2OC(=O)NCCNc2c(N)c(=O)c2=O)cc1` [V187518, (2R,3S,4S)-4-hydroxy-2-[(4-methoxyphenyl)methyl]pyrrolidin-3-yl N-{2-[(2-amino-3,4-dioxocyclobut-1-en-1-yl)amino]ethyl}carbamate; trifluoroacetic acid], the results for the IC50 in test [1], in test [2] and in test [3] were greater than 30 µM, 10 to 20 µM and greater than 30 µM, respectively.

On to `COc1ccc(C[C@H]2NC[C@H](O)[C@H]2OC(=O)NC[C@@H]2CCCO2)cc1` [V187520, (2R,3S,4S)-4-hydroxy-2-[(4-methoxyphenyl)methyl]pyrrolidin-3-yl N-[(2S)-oxolan-2-ylmethyl]carbamate; trifluoroacetic acid], for which the half-maximal inhibitory concentration (IC50) in test [1] is greater than 30 µM; in test [2] it was less than 10 µM; in test [3], 20 to 30 µM.

Turning to `COCCN(CCNC(=O)O[C@@H]1[C@H](O)CN[C@H]1Cc1ccc(OC)cc1)CCOC` [V187538, (2S,3S,4R)-4-hydroxy-2-[(4-methoxyphenyl)methyl]pyrrolidin-3-yl N-{2-[bis(2-methoxyethyl)amino]ethyl}carbamate; trifluoroacetic acid], the values for the half-inhibitory concentration (IC50) in test [1], in test [2] and in test [3] were greater than 30 µM, less than 10 µM and 10 to 20 µM, respectively.

In the case of `COc1ccc(C[C@@H]2NC[C@@H](O)[C@H]2OC(=O)NCCN(CCC(N)=O)Cc2c[nH]cn2)cc1` [V187539, (2S,3S,4R)-4-hydroxy-2-[(4-methoxyphenyl)methyl]pyrrolidin-3-yl N-{2-[(2-carbamoylethyl)(1H-imidazol-4-ylmethyl)amino]ethyl}carbamate; trifluoroacetic acid], the IC50 in test [1] was 20 to 30 µM; in test [2] it was less than 10 µM; in test [3], less than 10 µM.
